Assay results taken from patent publication US9115134B2, “6-triazolopyridazine sulfanyl benzothiazole derivatives as MET inhibitors” (SANOFI, priority 2007, dated 2015).

Legend:
[1] = test system: HCT116 cells, MKN45 cells; assay: Test C: Measurement of cell proliferation by 14C-thymidine pulse; format: cell-based; details: 14C-thymidine incorporation, 96 h of treatment; cell line not given
Procedure, shortened: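 HCT116 (2500/well, DMEM) and MKN45 (7500/well, RPMI), both with 10% FCS, treated after 4 h with 10 concentrations from 10 000 to 0.3 nM (3-fold, duplicate). ¹⁴C-thymidine (0.1 μCi/well) added at 72 h; incorporation read after 24 h pulse, 96 h total treatment.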

MET [2] = molecular target: T1, MET (Homo sapiens, UniProt P08581); assay: Test B: Inhibition of the autophosphorylation of MET; ELISA technique (pppY1230,1234,1235) in MKN45 cells; format: cell-based; set-up: Seed MKN45 cells into 96-well plates (Cell coat BD polylysine) at 20 000 cells/well; endogenous in cells; host or cells: MKN45 cells; details: 1 h treatment, PhosphoMET ELISA
Procedure, shortened: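 Adhered cells treated 1 h with six compound concentrations in duplicate, final 10 000 to 30 nM, against DMSO controls. Cells then lysed at 4° C for 30 min in Triton/SDS/deoxycholate buffer with phosphatase inhibitors. Phospho-MET measured by sandwich ELISA with anti-phospho MET antibody and HRP detection, absorbance at 450 nm.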
Target sequence in this assay (P08581 25-1390): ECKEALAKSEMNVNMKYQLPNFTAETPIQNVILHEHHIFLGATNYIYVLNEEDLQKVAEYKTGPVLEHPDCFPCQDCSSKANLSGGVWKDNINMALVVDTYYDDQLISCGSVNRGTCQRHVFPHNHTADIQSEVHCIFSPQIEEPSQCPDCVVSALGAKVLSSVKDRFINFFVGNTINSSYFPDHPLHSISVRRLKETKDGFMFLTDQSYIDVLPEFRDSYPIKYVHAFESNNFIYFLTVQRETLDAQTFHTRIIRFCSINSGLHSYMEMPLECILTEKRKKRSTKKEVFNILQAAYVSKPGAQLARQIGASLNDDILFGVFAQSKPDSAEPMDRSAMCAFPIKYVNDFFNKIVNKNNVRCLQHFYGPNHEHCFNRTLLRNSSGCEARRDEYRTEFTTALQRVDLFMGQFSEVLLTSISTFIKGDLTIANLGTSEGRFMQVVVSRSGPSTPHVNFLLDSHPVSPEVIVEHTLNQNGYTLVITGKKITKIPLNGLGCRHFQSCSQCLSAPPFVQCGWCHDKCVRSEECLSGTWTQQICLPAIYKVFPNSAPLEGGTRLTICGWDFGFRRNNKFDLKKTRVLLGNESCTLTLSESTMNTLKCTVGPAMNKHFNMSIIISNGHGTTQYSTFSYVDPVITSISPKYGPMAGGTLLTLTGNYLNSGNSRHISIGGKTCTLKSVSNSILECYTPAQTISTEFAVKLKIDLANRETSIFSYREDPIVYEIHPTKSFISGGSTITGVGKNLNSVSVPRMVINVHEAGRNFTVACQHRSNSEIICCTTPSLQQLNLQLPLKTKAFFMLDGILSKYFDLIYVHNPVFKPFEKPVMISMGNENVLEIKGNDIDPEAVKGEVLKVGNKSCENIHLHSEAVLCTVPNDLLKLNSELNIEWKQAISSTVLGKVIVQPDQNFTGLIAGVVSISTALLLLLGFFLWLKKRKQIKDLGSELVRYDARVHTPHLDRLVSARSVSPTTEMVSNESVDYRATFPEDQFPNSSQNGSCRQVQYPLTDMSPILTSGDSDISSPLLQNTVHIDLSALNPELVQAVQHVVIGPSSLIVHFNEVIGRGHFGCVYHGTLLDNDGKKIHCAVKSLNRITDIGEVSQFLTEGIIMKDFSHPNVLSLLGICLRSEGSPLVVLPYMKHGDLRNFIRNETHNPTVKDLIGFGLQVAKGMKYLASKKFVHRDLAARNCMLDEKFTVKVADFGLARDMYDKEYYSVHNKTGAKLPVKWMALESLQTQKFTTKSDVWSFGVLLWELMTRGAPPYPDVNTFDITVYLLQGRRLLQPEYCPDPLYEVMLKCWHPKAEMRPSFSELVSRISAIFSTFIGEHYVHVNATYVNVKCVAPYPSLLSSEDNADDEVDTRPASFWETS

MET [3] = molecular target: T1, MET; assay: Test A: HTRF MET assay in 96-well format; format: biochemical; set-up: The His-Tev-MET (956-1390) recombinant DNA in pFastBac (Invitrogen) is transfected into insect cells; His tag (N, cleaved yes); TEV cleavage site (N); made in house; host or cells: SF21 insect cells (baculovirus, pFastBac); details: MET 5 nM, 10 μM ATP
Procedure, shortened: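 Purified human MET cytoplasmic domain (956-1390, His tag cleaved), 5 nM, with compound (0.17 nM–10 μM, 3% DMSO) in MOPS pH 7.4; 1 μg/ml poly-(GAT), 10 μM ATP, 5 mM MgCl2, 10 min at ambient temperature. HTRF read-out (streptavidin-XL/anti-pTyr Eu cryptate, 2 h); % inhibition from 665/620 ratios.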
Target sequence in this assay (P08581 956-1390): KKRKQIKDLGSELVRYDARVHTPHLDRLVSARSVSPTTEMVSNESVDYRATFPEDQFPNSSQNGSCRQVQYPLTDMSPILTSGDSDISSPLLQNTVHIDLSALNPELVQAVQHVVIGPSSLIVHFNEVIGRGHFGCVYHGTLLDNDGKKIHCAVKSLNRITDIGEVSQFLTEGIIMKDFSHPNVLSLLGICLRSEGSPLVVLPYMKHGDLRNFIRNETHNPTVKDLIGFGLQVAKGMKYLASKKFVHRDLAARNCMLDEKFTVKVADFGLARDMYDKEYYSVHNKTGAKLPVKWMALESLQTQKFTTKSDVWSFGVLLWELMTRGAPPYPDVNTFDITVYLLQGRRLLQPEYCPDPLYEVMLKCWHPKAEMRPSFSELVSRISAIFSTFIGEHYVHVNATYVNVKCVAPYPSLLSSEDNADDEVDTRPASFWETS

| Structure (SMILES) | IC50 [1] [nM] | melting point [°C] | IC50 (MET [2]) [nM] | IC50 (MET [3]) [nM] |
| --- | --- | --- | --- | --- |
| CCN(CC)CCNC(=O)Nc1nc2ccc(Sc3nnc4ccc(-c5ccc(F)cc5)nn34)cc2s1 [Example 17, 1-[2-(Diethylamino)ethyl]-3-(6-{[6-(4-fluorophenyl)[1,2,4]triazolo[4,3-b]pyridazin-3-yl]sulphanyl}-1,3-benzothiazol-2-yl)urea] | < 1000 |  | < 100 | < 100 |
| COc1ccc2nnc(Sc3ccc4nc(NC(=O)NCCN5CCOCC5)sc4c3)n2n1 [Example 23, 1-{6-[(6-Methoxy[1,2,4]triazolo[4,3-b]pyridazin-3-yl)sulphanyl]-1,3-benzothiazol-2-yl}-3-[2-(morpholin-4-yl)ethyl]urea] | < 1000 |  | < 100 | < 100 |
| CC(C)(C)OC(=O)Nc1nc2ccc(Sc3nnc4ccc(N5CCOCC5)nn34)cc2s1 [Example 16, 1,1-Dimethylethyl (6-{[6-(morpholin-4-yl)[1,2,4]triazolo[4,3-b]pyridazin-3-yl]sulphanyl}-1,3-benzothiazol-2-yl)carbamate] | < 1000 |  | < 100 | < 100 |

Other lines, results leading:

| IC50 [1] [nM] | melting point [°C] | IC50 (MET [2]) [nM] | IC50 (MET [3]) [nM] | Structure (SMILES) |
| --- | --- | --- | --- | --- |
| < 10000 | 220 | > 500 | < 500 | CCC(C)CNc1nc2ccc(Sc3nnc4n3N=C(c3ccc(F)cc3)CC4)cc2s1 (stereo not shown) [Example 68, 6-{[6-(4-Fluorophenyl)-7,8-dihydro[1,2,4]triazolo[4,3-b]pyridazin-3-yl]sulphanyl}-N-(2-methylbutyl)-1,3-benzothiazol-2-amine] |
| < 1000 |  | < 100 | < 100 | COCCNc1ccc2nnc(Sc3ccc4nc(NC(=O)CCCN5CCOCC5)sc4c3)n2n1 [Example 39, N-[6-({6-[(2-Methoxyethyl)amino][1,2,4]triazolo[4,3-b]pyridazin-3-yl}sulphanyl)-1,3-benzothiazol-2-yl]-4-(morpholin-4-yl)butanamide] |
